Source: ChEMBL document CHEMBL5344434

How the values were obtained:
[1] = Selectivity index, ratio for cytotoxicity against human HepG2 cells after 24 hrs to antiviral activity against HEV Kernow-C1 infected in gaussia luciferase transfected HepG2 cells pre-infected with virus for 4 hrs followed by compound addition and measured after 24 hrs post infection; assay type: toxicity, cell-based; settings: read-out: Selectivity Index
[2] = Selectivity index, ratio for cytotoxicity against human HepG2 cells after 48 hrs to antiviral activity against HEV Kernow-C1 infected in gaussia luciferase transfected HepG2 cells pre-infected with virus for 4 hrs followed by compound addition and measured after 48 hrs post infection; assay type: toxicity, cell-based; settings: read-out: Selectivity Index
[3] = test system: Hepatitis E virus; experiment: Antiviral activity against HEV Kernow-C1 infected in gaussia luciferase transfected HepG2 cells assessed as reduction in viral replication pre-infected with virus for 4 hrs followed by compound addition and measured after 24 hrs post infection by luminometer analysis; assay type: functional, organism-based; settings: for EC90: time 20 hrs
[4] = Cytotoxicity against human HepG2 cells after 24 hrs by MTT assay; assay type: toxicity, cell-based
[5] = test system: Hepatitis E virus; experiment: Antiviral activity against HEV Kernow-C1 infected in gaussia luciferase transfected HepG2 cells assessed as reduction in viral replication pre-infected with virus for 4 hrs followed by compound addition and measured after 48 hrs post infection by luminometer analysis; assay type: functional, organism-based; settings: for EC90: time 44 hrs
[6] = Cytotoxicity against human HepG2 cells after 48 hrs by MTT assay; assay type: toxicity, cell-based
[7] = Selectivity index, ratio for cytotoxicity against human Huh-7 cells after 24 hrs to antiviral activity against Chikungunya virus ECSA infected in Huh-7 cells expressing GFP pre-infected with virus for 1 hr followed by compound addition and measured after 24 hrs post infection; assay type: toxicity, cell-based; settings: read-out: Selectivity Index
[8] = Selectivity index, ratio for cytotoxicity against human Huh-7 cells after 48 hrs to antiviral activity against Chikungunya virus ECSA infected in Huh-7 cells expressing GFP pre-infected with virus for 1 hr followed by compound addition and measured after 48 hrs post infection; assay type: toxicity, cell-based; settings: read-out: Selectivity Index
[9] = Selectivity index, ratio for cytotoxicity against african green monkey Vero E6 cells after 24 hrs to antiviral activity against SARS-CoV-2 2019-nCoV Muc-IMB-1 infected in Vero E6 cells pre-infected with virus for 1 hr followed by compound addition and measured after 24 hrs post infection; assay type: toxicity, cell-based, Vero C1008; settings: read-out: Selectivity Index
[10] = Selectivity index, ratio for cytotoxicity against african green monkey Vero E6 cells after 48 hrs to antiviral activity against SARS-CoV-2 2019-nCoV Muc-IMB-1 infected in Vero E6 cells pre-infected with virus for 1 hr followed by compound addition and measured after 48 hrs post infection; assay type: toxicity, cell-based, Vero C1008; settings: read-out: Selectivity Index
[11] = Selectivity index, ratio for cytotoxicity against african green monkey Vero E6 cells after 24 hrs to antiviral activity against RVFV MP-12 infected in Vero E6 cells pre-infected with virus for 1 hr followed by compound addition and measured after 24 hrs post infection; assay type: toxicity, cell-based, Vero C1008; settings: read-out: Selectivity Index
[12] = Selectivity index, ratio for cytotoxicity against african green monkey Vero E6 cells after 48 hrs to antiviral activity against RVFV MP-12 infected in Vero E6 cells pre-infected with virus for 1 hr followed by compound addition and measured after 48 hrs post infection; assay type: toxicity, cell-based, Vero C1008; settings: read-out: Selectivity Index
[13] = test system: Vero C1008; experiment: Cytotoxicity against african green monkey Vero E6 cells after 48 hrs by MTT assay; assay type: toxicity, cell-based; settings: chlorocebus sabaeus, vero c1008, 48 h

SMILES | selectivity ratio at 24 h [1] | selectivity ratio at 48 h [2] | also measured
COC(=O)[C@H]1[C@@H](O)[C@@]2(O)c3c(OC)cc(OC)cc3O[C@@]2(c2ccc(Br)cc2)[C@@H]1c1ccccc1 (racemic) | 74.1 | 3.2 | –
CONC(=O)[C@H]1[C@@H](O)[C@@]2(O)c3c(OC)cc(OC)cc3O[C@@]2(c2ccc(OC)cc2)[C@@H]1c1ccccc1 (racemic) | 35.4 | 3.8 | EC50 [3]: 6.1 nM; EC90 [3]: 29 nM; CC50 at 24 h [4]: 188 nM; EC50 [5]: 3.7 nM; EC90 [5]: 27.3 nM; CC50 at 48 h [6]: 14.3 nM
COC(=O)[C@H]1[C@@H](O)[C@@]2(O)c3c(OC)cc(Cl)cc3O[C@@]2(c2ccc(OC)cc2)[C@@H]1c1ccccc1 (racemic) | 79.3 | 7.5 | –
COC(=O)[C@H]1[C@@H](O)[C@@]2(O)c3c(OC)cc(OC)cc3O[C@@]2(c2ccc(Cl)cc2)[C@@H]1c1ccccc1 (racemic) | 26.4 | 2.2 | –
CONC(=O)[C@H]1[C@@H](O)[C@@]2(O)c3c(OC)cc(OC)cc3O[C@@]2(c2ccc(F)cc2)[C@@H]1c1ccccc1 (racemic) | 13.5 | 3.7 | EC50 [3]: 53.7 nM; EC90 [3]: 670 nM; CC50 at 24 h [4]: 666 nM; EC50 [5]: 52.9 nM; EC90 [5]: 338 nM; CC50 at 48 h [6]: 143 nM
CONC(=O)[C@H]1[C@@H](O)[C@@]2(O)c3c(F)cc(OC)cc3O[C@@]2(c2ccc(OC)cc2)[C@@H]1c1ccccc1 (racemic) | 28.5 | 2.5 | –
COC(=O)[C@H]1[C@@H](O)[C@@]2(O)c3c(F)cc(F)cc3O[C@@]2(c2ccc(OC)cc2)[C@@H]1c1ccccc1 (racemic) | 1 | 1 | –
COC(=O)[C@H]1[C@@H](O)[C@@]2(O)c3c(Br)cc(OC)cc3O[C@@]2(c2ccc(OC)cc2)[C@@H]1c1ccccc1 (racemic) | 9.7 | 2.5 | –
COC(=O)[C@H]1[C@@H](O)[C@@]2(O)c3c(Cl)cc(OC)cc3O[C@@]2(c2ccc(OC)cc2)[C@@H]1c1ccccc1 (racemic) | 9.3 | 1.8 | –
COCOc1cc(F)c2c(c1)O[C@@]1(c3ccc(Br)cc3)[C@H](c3ccccc3)[C@@H](C(=O)OC)[C@@H](O)[C@@]21O (racemic) | 8.1 | 2.1 | –
COC(=O)[C@H]1[C@@H](O)[C@@]2(O)c3c(Cl)cc(Cl)cc3O[C@@]2(c2ccc(Br)cc2)[C@@H]1c1ccccc1 (racemic) | 13.4 | 3.7 | –
COC(=O)[C@H]1[C@@H](O)[C@@]2(O)c3c(F)cc(OC)cc3O[C@@]2(c2ccc(OC)cc2)[C@@H]1c1ccccc1 (racemic) | 30.4 | 2.5 | –
COC(=O)[C@H]1[C@@H](O)[C@@]2(O)c3c(OC)cc(Br)cc3O[C@@]2(c2ccc(OC)cc2)[C@@H]1c1ccccc1 (racemic) | 160 | 11 | selectivity ratio at 24 h [7]: 637; selectivity ratio at 48 h [8]: 428; selectivity ratio at 24 h [9]: 29.5; selectivity ratio at 48 h [10]: 20.9; selectivity ratio at 24 h [11]: 38.4; selectivity ratio at 48 h [12]: 23.1
COC(=O)[C@H]1[C@@H](O)[C@@]2(O)c3c(Cl)cc(Br)cc3O[C@@]2(c2ccc(OC)cc2)[C@@H]1c1ccccc1 (racemic) | 122 | 5.1 | –
COC(=O)[C@H]1[C@@H](O)[C@@]2(O)c3c(OC)cc(F)cc3O[C@@]2(c2ccc(OC)cc2)[C@@H]1c1ccccc1 (racemic) | 1 | 1.3 | –
COC(=O)[C@H]1[C@@H](O)[C@@]2(O)c3c(Cl)cc(Cl)cc3O[C@@]2(c2ccc(OC)cc2)[C@@H]1c1ccccc1 (racemic) | 31.7 | 8.2 | selectivity ratio at 24 h [7]: 57.5; selectivity ratio at 48 h [8]: 44.9; selectivity ratio at 24 h [9]: 9; selectivity ratio at 48 h [10]: 5.7; selectivity ratio at 24 h [11]: 9.8; selectivity ratio at 48 h [12]: 7
COCOc1cc(F)c2c(c1)O[C@@]1(c3ccc(OC)cc3)[C@H](c3ccccc3)[C@@H](C(=O)OC)[C@@H](O)[C@@]21O (racemic) | 4.6 | 1.8 | –
CONC(=O)[C@H]1[C@@H](O)[C@@]2(O)c3c(Br)cc(Cl)cc3O[C@@]2(c2ccc(OC)cc2)[C@@H]1c1ccccc1 (racemic) | 163 | 4.6 | EC50 [3]: 4.1 nM; EC90 [3]: 131 nM; CC50 at 24 h [4]: 464 nM; EC50 [5]: 5.5 nM; EC90 [5]: 62.9 nM; CC50 at 48 h [6]: 26.3 nM
CONC(=O)[C@H]1[C@@H](O)[C@@]2(O)c3c(Cl)cc(Cl)cc3O[C@@]2(c2ccc(OC)cc2)[C@@H]1c1ccccc1 (racemic) | 65.9 | 3.3 | –
COC(=O)[C@H]1[C@@H](O)[C@@]2(O)c3c(Br)cc(Br)cc3O[C@@]2(c2ccc(OC)cc2)[C@@H]1c1ccccc1 (racemic) | 22.1 | 2.6 | –
COC(=O)[C@H]1[C@@H](O)[C@@]2(O)c3c(OC)cc(OC)cc3O[C@@]2(c2ccc(F)cc2)[C@@H]1c1ccccc1 (racemic) | 10.9 | 1.4 | –
CONC(=O)[C@H]1[C@@H](O)[C@@]2(O)c3c(OC)cc(Br)cc3O[C@@]2(c2ccc(OC)cc2)[C@@H]1c1ccccc1 (racemic) | 52800 | 7.4 | –
COc1cc(OC)c2c(c1)O[C@@]1(c3ccc(F)cc3)[C@H](c3ccccc3)[C@@H](C(=O)N(C)C)[C@@H](O)[C@@]21O (racemic) | 4.4 | 1.5 | –
CONC(=O)[C@H]1[C@@H](O)[C@@]2(O)c3c(OC)cc(OC)cc3O[C@@]2(c2ccc(Cl)cc2)[C@@H]1c1ccccc1 (racemic) | 198 | 4.2 | EC50 [3]: 2.8 nM; EC90 [3]: 23.8 nM; CC50 at 24 h [4]: 529 nM; EC50 [5]: 2.3 nM; EC90 [5]: 18.2 nM; CC50 at 48 h [6]: 10 nM
COC(=O)[C@H]1[C@@H](O)[C@@]2(O)c3c(Br)cc(Cl)cc3O[C@@]2(c2ccc(OC)cc2)[C@@H]1c1ccccc1 (racemic) | 19 | 2.8 | –
CONC(=O)[C@H]1[C@@H](O)[C@@]2(O)c3c(Cl)cc(Br)cc3O[C@@]2(c2ccc(OC)cc2)[C@@H]1c1ccccc1 (racemic) | 123 | 5.7 | CC50 [13]: 176 nM; selectivity ratio at 24 h [7]: 402; selectivity ratio at 48 h [8]: 317; selectivity ratio at 24 h [9]: 19.5; selectivity ratio at 48 h [10]: 0.9; selectivity ratio at 24 h [11]: 23.8; selectivity ratio at 48 h [12]: 1.7
COc1ccc([C@@]23Oc4cc(OC)cc(F)c4[C@]2(O)[C@H](O)[C@H](C(=O)N(C)C)[C@H]3c2ccccc2)cc1 (racemic) | 14.3 | 2.7 | –
COc1cc(OC)c2c(c1)O[C@@]1(c3ccc(Cl)cc3)[C@H](c3ccccc3)[C@@H](C(=O)N(C)C)[C@@H](O)[C@@]21O (racemic) | 50.8 | 2.7 | –
COc1ccc([C@@]23Oc4cc(OC)cc(OC)c4[C@]2(O)[C@H](O)[C@H](C(=O)N(C)C)[C@H]3c2ccccc2)cc1 (racemic) [ROCAGLAMIDE] | 19.7 | 2.1 | –
COC(=O)[C@H]1[C@@H](O)[C@@]2(O)c3c(OC)cc(O[C@@H]4O[C@@H]([C@H](O)CO)CO[C@H]4OC)cc3O[C@@]2(c2ccc(OC)cc2)[C@@H]1c1ccccc1 [SILVESTROL] | 76.7 | 6.1 | –
